Assays:
TyzA = target: T1, TyzA (Mycobacterium tuberculosis, UniProt P95232)
T1 construct: gene Rv2336

TyzB = target: T2, TyzB (Mycobacterium tuberculosis, UniProt P95234)
T2 construct: gene moeW

TyzC = target: T3, TyzC (Mycobacterium tuberculosis, UniProt P95233)
T3 construct: gene Rv2337c
T3 sequence (P95233 entry or part of it): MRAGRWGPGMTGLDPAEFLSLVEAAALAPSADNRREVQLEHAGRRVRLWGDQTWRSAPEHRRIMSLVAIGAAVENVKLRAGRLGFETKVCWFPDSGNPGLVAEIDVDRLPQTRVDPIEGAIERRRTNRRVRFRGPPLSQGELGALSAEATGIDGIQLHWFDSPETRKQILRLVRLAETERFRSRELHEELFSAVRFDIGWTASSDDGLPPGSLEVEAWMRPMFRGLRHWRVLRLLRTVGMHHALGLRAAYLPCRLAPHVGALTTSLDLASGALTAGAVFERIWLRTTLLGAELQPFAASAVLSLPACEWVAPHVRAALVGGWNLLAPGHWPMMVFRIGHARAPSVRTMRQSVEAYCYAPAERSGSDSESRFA

T1 sequence (P95232 entry or part of it): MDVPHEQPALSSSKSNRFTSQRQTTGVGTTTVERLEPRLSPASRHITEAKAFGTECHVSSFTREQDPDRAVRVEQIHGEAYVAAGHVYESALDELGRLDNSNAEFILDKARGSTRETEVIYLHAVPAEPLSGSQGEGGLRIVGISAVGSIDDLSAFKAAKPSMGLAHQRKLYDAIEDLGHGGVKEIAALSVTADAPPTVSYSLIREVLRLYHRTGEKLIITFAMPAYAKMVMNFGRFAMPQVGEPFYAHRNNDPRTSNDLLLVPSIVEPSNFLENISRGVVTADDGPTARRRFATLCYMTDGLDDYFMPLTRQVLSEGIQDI
T2 sequence (P95234 entry or part of it): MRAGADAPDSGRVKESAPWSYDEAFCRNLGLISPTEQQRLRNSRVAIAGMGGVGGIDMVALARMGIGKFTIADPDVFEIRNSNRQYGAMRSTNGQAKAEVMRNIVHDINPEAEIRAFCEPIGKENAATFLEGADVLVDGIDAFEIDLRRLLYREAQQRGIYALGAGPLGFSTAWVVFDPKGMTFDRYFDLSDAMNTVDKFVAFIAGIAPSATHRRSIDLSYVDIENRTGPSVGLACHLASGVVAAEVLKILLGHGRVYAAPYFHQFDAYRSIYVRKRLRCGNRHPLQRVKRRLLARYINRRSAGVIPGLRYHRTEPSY

CCCCCCCCCCCC(=O)SCCNC(=O)CCNC(=O)[C@H](O)C(C)(C)COP(=O)(O)OP(=O)(O)OC[C@H]1O[C@@H](n2cnc3c(N)ncnc32)[C@H](O)[C@@H]1OP(=O)(O)O [C12:0-CoA]
KiS (TyzA): 450 ± 90 µM

Nc1ncnc2c1ncn2[C@@H]1O[C@H](COP(=O)(O)OP(=O)(O)OP(=O)(O)O)[C@@H](O)[C@H]1O [ATP]
LC-QTOF endpoint assay, purified TyzA plus RHA1 pTip-TyzBC lysate (TyzB): performed ATP-dependent cyclization and O2-dependent desaturation of C12:0-L-Tyr, respectively

CCCCCCCCCCCC(=O)N[C@@H](Cc1ccc(O)cc1)C(=O)O [C12:0-L-Tyr]
LC-QTOF endpoint assay, purified TyzA plus RHA1 pTip-TyzBC lysate (TyzC): performed ATP-dependent cyclization and O2-dependent desaturation of C12:0-L-Tyr, respectively
